Tests used:
Test in all cases: relative viability (nuclei count vs DMSO), 5 days (fraction); higher = more cells survive
BAY61-3606 + Dasatinib = compound: COC1=C(C=C(C=C1)C2=CC3=NC=CN3C(=N2)NC4=C(C=CC=N4)C(=O)N)OC [BAY61-3606] + Cc1nc(Nc2ncc(C(=O)Nc3c(C)cccc3Cl)s2)cc(N2CCN(CCO)CC2)n1 [Dasatinib] (partner 0.075 µM)
Method in brief: (§1)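 Cells from lung cancer lines were seeded into 1536-well plates and, one day later, dosed by pin tool. Treatments were either a single drug or a fixed dose of an anchor drug with five library-drug doses (not always all listed) in √10 steps. After 5 days, nuclei were stained in a one-step fixation (final 0.05% Triton X-100, 1% formaldehyde, 1 ug/ml Hoechst) and counted on 4× images, and relative viability is the treated-to-vehicle nuclei ratio, as the median of duplicate plates.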

Doxorubicin + Bortezomib = compound: COc1cccc2c1C(=O)c1c(O)c3c(c(O)c1C2=O)C[C@@](O)(C(=O)CO)C[C@@H]3O[C@H]1C[C@H](N)[C@H](O)[C@H](C)O1 [Doxorubicin] + CC(C)C[C@H](NC(=O)[C@H](Cc1ccccc1)NC(=O)c1cnccn1)B(O)O [Bortezomib] (partner 0.002 µM)
Method in brief: as §1

Doxorubicin + Tozasertib = compound: COc1cccc2c1C(=O)c1c(O)c3c(c(O)c1C2=O)C[C@@](O)(C(=O)CO)C[C@@H]3O[C@H]1C[C@H](N)[C@H](O)[C@H](C)O1 [Doxorubicin] + Cc1cc(Nc2cc(N3CCN(C)CC3)nc(Sc3ccc(NC(=O)C4CC4)cc3)n2)n[nH]1 [Tozasertib] (partner 0.1 µM)
Method in brief: as §1

Doxorubicin + Pemetrexed = compound: COc1cccc2c1C(=O)c1c(O)c3c(c(O)c1C2=O)C[C@@](O)(C(=O)CO)C[C@@H]3O[C@H]1C[C@H](N)[C@H](O)[C@H](C)O1 [Doxorubicin] + Nc1nc2[nH]cc(CCc3ccc(C(=O)N[C@@H](CCC(=O)O)C(=O)O)cc3)c2c(=O)[nH]1 [Pemetrexed] (partner 0.2 µM)
Method in brief: as §1

| Cell Line | relative viability (BAY61-3606 + Dasatinib; first compound 0.02 µM) | relative viability (BAY61-3606 + Dasatinib; first compound 0.06325 µM) | relative viability (BAY61-3606 + Dasatinib; first compound 0.2 µM) | relative viability (BAY61-3606 + Dasatinib; first compound 0.6325 µM) | relative viability (BAY61-3606 + Dasatinib; first compound 2 µM) | relative viability (Doxorubicin + Bortezomib; first compound 0.001 µM) | relative viability (Doxorubicin + Bortezomib; first compound 0.003162 µM) | relative viability (Doxorubicin + Bortezomib; first compound 0.01 µM) | relative viability (Doxorubicin + Bortezomib; first compound 0.03162 µM) | relative viability (Doxorubicin + Bortezomib; first compound 0.1 µM) | relative viability (Doxorubicin + Tozasertib; first compound 0.001 µM) | relative viability (Doxorubicin + Tozasertib; first compound 0.003162 µM) | relative viability (Doxorubicin + Tozasertib; first compound 0.01 µM) | relative viability (Doxorubicin + Tozasertib; first compound 0.03162 µM) | relative viability (Doxorubicin + Tozasertib; first compound 0.1 µM) | relative viability (Doxorubicin + Pemetrexed; first compound 0.001 µM) | relative viability (Doxorubicin + Pemetrexed; first compound 0.003162 µM) | relative viability (Doxorubicin + Pemetrexed; first compound 0.01 µM) | relative viability (Doxorubicin + Pemetrexed; first compound 0.03162 µM) | relative viability (Doxorubicin + Pemetrexed; first compound 0.1 µM) |
| --- | --- | --- | --- | --- | --- | --- | --- | --- | --- | --- | --- | --- | --- | --- | --- | --- | --- | --- | --- | --- |
| ChaGo-K-1 | 0.566 | 0.547 | 0.591 | 0.548 | 0.596 | 1.16 | 0.832 | 0.948 | 0.47 | 0.319 | 0.229 | 0.199 | 0.222 | 0.208 | 0.226 | 0.264 | 0.254 | 0.231 | 0.259 | 0.273 |
| EBC-1 |  |  |  |  |  | 0.589 | 0.52 | 0.542 | 0.363 | 0.222 |  |  |  |  |  |  |  |  |  |  |
| EKVX | 0.602 | 0.455 | 0.436 | 0.58 | 0.297 | 0.956 | 1.04 | 1.06 | 0.994 | 0.591 | 0.35 | 0.434 | 0.383 | 0.415 | 0.342 | 0.336 | 0.404 | 0.426 | 0.45 | 0.257 |
| EMC-BAC-2 | 0.359 | 0.323 | 0.353 | 0.298 | 0.276 | 1.11 | 1.1 | 0.997 | 0.518 | 0.451 | 0.321 | 0.26 | 0.308 | 0.25 | 0.216 | 0.491 | 0.48 | 0.444 | 0.409 | 0.369 |
| EPLC-272H | 0.386 | 0.385 | 0.315 | 0.41 | 0.275 | 0.827 | 0.98 | 0.897 | 1.05 | 0.931 | 0.423 | 0.401 | 0.238 | 0.26 | 0.506 | 0.365 | 0.372 | 0.377 | 0.322 | 0.298 |
| H3255 | 0.411 | 0.304 | 0.352 | 0.335 | 0.462 | 0.675 | 0.889 | 0.856 | 0.589 | 0.306 | 0.59 | 0.759 | 0.573 | 0.604 | 0.539 | 0.526 | 0.558 | 0.559 | 0.535 | 0.523 |
| HARA | 0.168 | 0.233 | 0.323 | 0.245 | 0.28 | 1.1 | 0.993 | 1.11 | 1.08 | 1 | 0.112 | 0.126 | 0.241 | 0.128 | 0.145 | 0.22 | 0.257 | 0.338 | 0.259 | 0.268 |
| HCC-15 | 0.696 | 0.59 | 0.592 | 0.551 | 0.483 | 0.953 | 1.02 | 0.923 | 0.623 | 0.636 |  | 0.428 | 0.454 | 0.201 | 0.116 | 0.239 | 0.215 | 0.228 | 0.205 | 0.205 |
| HCC-44 |  |  |  |  |  | 0.947 | 0.988 | 0.891 | 0.949 | 0.828 | 0.767 | 0.882 | 0.797 | 0.284 | 0.321 | 0.625 | 0.698 | 0.625 | 0.685 | 0.63 |

Source: the supplement of paper PMC10307832
